Measurements as given in ChEMBL document CHEMBL1667814 (Bioorg Med Chem, 2011).
pIC50: −log10 of the molar value.

Columns and labels:
[1] = target: Acetylcholinesterase (Electrophorus electricus, UniProt O42275); conditions: for pIC50: read-out: IC50
Description: Inhibition of electric eel AChE by Ellman's method

[2] = target: Cholinesterase (Equus caballus, UniProt P81908)
Cholinesterase, sequence (P81908 whole entry): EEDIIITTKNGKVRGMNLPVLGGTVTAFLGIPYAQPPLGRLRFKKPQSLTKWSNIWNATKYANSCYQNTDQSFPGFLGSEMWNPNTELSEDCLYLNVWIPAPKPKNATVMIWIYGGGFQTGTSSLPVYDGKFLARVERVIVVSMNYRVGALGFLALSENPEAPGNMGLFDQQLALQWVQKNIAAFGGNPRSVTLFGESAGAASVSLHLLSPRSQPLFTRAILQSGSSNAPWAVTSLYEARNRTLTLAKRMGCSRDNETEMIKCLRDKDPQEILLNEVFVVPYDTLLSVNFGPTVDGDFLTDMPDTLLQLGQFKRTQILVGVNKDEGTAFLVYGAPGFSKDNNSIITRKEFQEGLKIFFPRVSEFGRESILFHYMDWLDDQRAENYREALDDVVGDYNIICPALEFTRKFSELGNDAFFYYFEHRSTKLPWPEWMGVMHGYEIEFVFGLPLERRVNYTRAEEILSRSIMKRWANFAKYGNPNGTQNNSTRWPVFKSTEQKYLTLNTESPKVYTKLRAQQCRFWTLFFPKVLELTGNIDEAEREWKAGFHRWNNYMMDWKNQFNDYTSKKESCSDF
Description: Inhibition of equine serum BChE by Ellman's method

Acetylcholinesterase, sequence (O42275 whole entry): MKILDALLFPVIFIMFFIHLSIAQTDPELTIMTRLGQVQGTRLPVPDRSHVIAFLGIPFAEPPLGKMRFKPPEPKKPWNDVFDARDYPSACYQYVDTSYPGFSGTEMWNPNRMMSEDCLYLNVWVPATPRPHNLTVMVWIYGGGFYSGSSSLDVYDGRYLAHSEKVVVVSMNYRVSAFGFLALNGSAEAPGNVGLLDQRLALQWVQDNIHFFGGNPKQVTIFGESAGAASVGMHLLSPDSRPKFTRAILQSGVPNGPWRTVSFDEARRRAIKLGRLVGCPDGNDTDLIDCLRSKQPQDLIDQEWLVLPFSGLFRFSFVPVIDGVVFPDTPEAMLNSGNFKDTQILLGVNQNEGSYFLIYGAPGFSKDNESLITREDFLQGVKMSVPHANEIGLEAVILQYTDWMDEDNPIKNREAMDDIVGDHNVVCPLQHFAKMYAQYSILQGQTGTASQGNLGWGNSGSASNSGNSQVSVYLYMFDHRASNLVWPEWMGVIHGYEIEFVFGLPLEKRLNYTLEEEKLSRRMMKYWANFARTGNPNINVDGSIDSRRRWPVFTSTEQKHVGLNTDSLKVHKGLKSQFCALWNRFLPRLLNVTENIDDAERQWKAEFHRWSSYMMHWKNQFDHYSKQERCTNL

SMILES	pIC50 [1]	pIC50 [2]	IC50 ([1]; read-out: pIC50 (converted)) [nM]
c1ccc(C/N=c2/c3ccccc3nc3n2CCCCCC3)cc1	< 3.30	5.96	–
c1ccc(C/N=c2/c3ccccc3nc3n2CCC3)cc1	4.86	5.72	–
c1ccc2/c(=N\CCCCCCC/N=c3\c4ccccc4nc4n3CCC4)n3c(nc2c1)CCC3	7.10	7.06	–
CN(CCCN=c1c2ccccc2nc2n1CCC2)CCC/N=c1\c2ccccc2nc2n1CCC2	6.27	6.26	–
CC(=O)N(CCCN=c1c2ccccc2nc2n1CCC2)CCC/N=c1\c2ccccc2nc2n1CCC2	6.48	6.57	–
c1ccc2c(=NCCCCCCC/N=c3\c4ccccc4nc4n3CCCCCC4)n3c(nc2c1)CCCCCC3	7.19	7.57	–
CN(CCCN=c1c2ccccc2nc2n1CCCCCC2)CCC/N=c1\c2ccccc2nc2n1CCCCCC2	6.69	6.71	–
CC(=O)N(CCCN=c1c2ccccc2nc2n1CCCCCC2)CCC/N=c1\c2ccccc2nc2n1CCCCCC2	7.31	7.14	–
c1ccc2c(=NCCCCCCCCN=c3c4ccccc4nc4n3CCC4)n3c(nc2c1)CCC3	7.24	8.32	–
CN(CCCCN=c1c2ccccc2nc2n1CCC2)CCCN=c1c2ccccc2nc2n1CCC2	6.25	7.09	–
CC(=O)N(CCCCN=c1c2ccccc2nc2n1CCC2)CCCN=c1c2ccccc2nc2n1CCC2	7.68	8.40	–
CCC(=O)N(CCCCN=c1c2ccccc2nc2n1CCC2)CCCN=c1c2ccccc2nc2n1CCC2	7.74	8.23	–
C=C(C)C(=O)N(CCCCN=c1c2ccccc2nc2n1CCC2)CCCN=c1c2ccccc2nc2n1CCC2	8.17	7.97	–
c1ccc2c(=NCCCCCCCCN=c3c4ccccc4nc4n3CCCCCC4)n3c(nc2c1)CCCCCC3	4.84	7.12	–
CN(CCCCN=c1c2ccccc2nc2n1CCCCCC2)CCCN=c1c2ccccc2nc2n1CCCCCC2	6.22	7.29	–
CC(=O)N(CCCCN=c1c2ccccc2nc2n1CCCCCC2)CCCN=c1c2ccccc2nc2n1CCCCCC2	6.75	7.37	–
CCC(=O)N(CCCCN=c1c2ccccc2nc2n1CCCCCC2)CCCN=c1c2ccccc2nc2n1CCCCCC2	6.54	7.33	–
C=C(C)C(=O)N(CCCCN=c1c2ccccc2nc2n1CCCCCC2)CCCN=c1c2ccccc2nc2n1CCCCCC2	6.81	7.42	–
CC(=O)NCC(=O)N(CCCCN=c1c2ccccc2nc2n1CCCCCC2)CCCN=c1c2ccccc2nc2n1CCCCCC2	7.12	6.91	–
CC(C)(C)C(=O)N(CCCCN=c1c2ccccc2nc2n1CCCCCC2)CCCN=c1c2ccccc2nc2n1CCCCCC2	6.27	7.59	53.6
CCCCC(=O)N(CCCCN=c1c2ccccc2nc2n1CCCCCC2)CCCN=c1c2ccccc2nc2n1CCCCCC2	5.98	7.89	–
CC(C)CC(=O)N(CCCCN=c1c2ccccc2nc2n1CCCCCC2)CCCN=c1c2ccccc2nc2n1CCCCCC2	6.21	8.09	–
CC(C)CCC(=O)N(CCCCN=c1c2ccccc2nc2n1CCCCCC2)CCCN=c1c2ccccc2nc2n1CCCCCC2	6.10	8.52	–
